Data set [1] deals with Pseudomonas aeruginosa. The settings on record: cited from earlier work.
For data set [2] the following is noted: 2,000,000 units nebulized; cited from earlier work.
Data set [3] can be described thus: pH of freshly dissolved colimycin solutions over time. The class given is physicochemical. The settings on record: 10.0, 15.0 and 20.0 mg/ml in water, all cases. As to the method: Acidic stability of the colimycin solution was determined according to Example 11. Briefly, colimycin (405 mg) was freshly dissolved in water to achieve 10.0 mg/ml, 15.0 mg/ml, and 20.0 mg/ml solutions. These values correspond to concentrations of 3.7 mg/ml, 5.6 mg/ml and 7.4 mg/ml colistin base equivalent. Solution pH was monitored continuously at various times from 1 minute to 180 minutes and pH values and times were recorded.
The pH of freshly dissolved colimycin was determined by weighing a freshly opened vial of Coly-Mycin M Parenteral, Parke-Davis, lot# 01966P, containing 405 mg into 20 ml glass screwcap scintillation vials and adding an appropriate volume of sterile irrigation water to achieve 10.0 mg/ml, 15.0 mg/ml, and 20.0 mg/ml solutions. These values correspond to concentrations of 3.7 mg/ml, 5.6 mg/ml and 7.4 mg/ml colistin base equivalent. Solution pH was then monitored continuously using a Beckman Phi-10 pH meter fitted with a Beckman Futura Plus combination electrode calibrated at pH 4.0 and 7.0 as per manufacturer's instructions prior to use. At various times from 1 minute to 180 minutes, pH values and times were recorded.

For data set [4] the following is noted: systemic intravenous, acute pulmonary exacerbation; cited from earlier work.
Data set [5] in a line: Jet nebulization (Pari LC Jet) with laser diffraction aerosol characterization. Format: physicochemical. The settings on record: Pari LC Jet nebulizer, n=3. As to the method:
Colimycin was freshly dissolved in 37.5 mM NaCl at a concentration of 20 mg/ml colistin base equivalent immediately prior to nebulization. Colistin component IV sulfate was dissolved in 120 mM sodium chloride, and the pH was adjusted to 7.0 with 1 molar sodium hydroxide.
Four ml of solution to be nebulized was placed in a Pari LC Jet nebulizer fitted with a Pulmonaide Compressor (DeVilbiss Model 5650D) with an air flow rate of 4-6 liters/minute. Aerosols generated are characterized by passing through a laser diffraction particle analyzer (Malvern Mastersizer X). Each formulation was analyzed multiple times to determine reproducibility of results, which were expressed as total obscuration time, mass median average diameter, and respirable fraction.
In order to characterize colistin aerosols, and to investigate differences between the colimycin and colistin aerosol formulations, comparisons of the aerosolization of 150 mM (isotonic) NaCl alone, 20 mg/ml colistin component IV sulfate in 120 mM or 20 mg/ml colimycin in […] NaCl were made. Results are shown in FIG. 18, which is a comparison of the times required for aerosolization of 4 mL of the three solutions. The two drug solutions were analyzed three times, and saline was analyzed four times. Bars show standard deviations of measurements.
Colimycin was freshly dissolved in 37.5 mM […] NaCl at a concentration of 20 mg (colistin base equivalents)/ml solution immediately prior to nebulization. […]
Four ml of solution to be nebulized was placed in a Pari LC Jet nebulizer fitted with a Pulmonaide Compressor, DeVilbiss Model 5650D, with an air flow rate of 4-6 liters/minute. […] Each formulation was analyzed multiple times to determine reproducibility of results, which were expressed as total obscuration time, mass median particle diameter, and respirable fraction.
Mass median particle diameters were expressed as average ±standard deviation (n) for aerosols.
Average respirable fractions were calculated as average percentage of particles ranging from 1 micron to 6 microns in diameter within the aerosol over time.

For data set [6] the following is noted: in situ in the recipient patient body; cited from earlier work.
In data set [7] the test system is Pseudomonas aeruginosa. Kind of data set: Time kill kinetic study of bactericidal activity. Format: cell-based. As to the method:
Comparison of anti-Pseudomonas aeruginosa activities of colimycin and colistin hydrochloride was performed using time kill kinetic studies as described in Antimicrobial Susceptibility Testing, Section 5.16.: Tests to assess bactericidal activity, Clinical Microbiology Procedure Handbook, Ed. Henry D. Isenberg, ASM, Washington, DC (1992). The exact procedure is described in Example 14.
Briefly, tests were similar to those used for determining MICs, except that the final test volume was larger (10 mL) to allow sampling at various time points. Parenteral colimycin was freshly diluted immediately before testing. Cultures were incubated at 37° C. At initial set-up and at various time-points, cultures were plated, with or without further dilution, onto sheep blood agar plates. Plates were incubated for 18-24 hours, and the number of CFU/mL was determined and plotted to determine the percentage of surviving organisms and the time required to achieve 99.9% killing. Results are seen in FIG. 15.
In this study, Pseudomonas aeruginosa organisms were exposed to varying concentrations of colistin or colimycin as indicated in FIG. 15. Concentrations of colimycin were between 8-64 μg/ml. Concentrations of colistin component IV hydrochloride were 0.25 and 0.5 μg/ml, that is 32-256 (for 0.25 μg/ml) and 16-128 (for 0.5 μg/ml) times lower that concentrations of colimycin. Colony-forming unit (CFU) per ml were determined and plotted against drug exposure time in hours.
Time kill kinetic studies were performed as described in (Antimicrobial Susceptibility Testing, Section 5.16. Tests to assess bactericidal activity, in Clinical Microbiology Procedure Handbook (supra).
Tests were set in the same way used for determining MICs (Example 13), except that the final test volume was larger (10 mL) to allow sampling at various time points. Cultures were incubated at 37° C. At initial set-up and at various desired time-points, cultures were sampled and plated (with or without further dilution) onto sheep blood agar plates. Plates were incubated for 18-24 hours, and the number of CFU/mL was determined and plotted to determine the percentage of surviving organisms and the time required to achieve 99.9% killing.

Where [8] appears, read: 20 mg/ml, average±standard deviation.

Where only a bound is given, the exact number is not on record here.

These results are taken from US5767068A, “Pure biologically active colistin, its components and a colistin formulation for treatment of pulmonary infections” (Pathogenesis Corporation, priority 1997, dated 1998).

For the molecule `NC[C@H]1O[C@H](O[C@H]2[C@H](O)[C@@H](O[C@H]3O[C@H](CO)[C@@H](O)[C@H](N)[C@H]3O)[C@H](N)C[C@@H]2N)[C@H](N)C[C@@H]1O` [tobramycin], in the data set with Pseudomonas aeruginosa [1], the “strains of Pseudomonas aeruginosa sensitive to treatment” value is “about 90%”.

With colimycin, in data set [2], the “patients reporting chest tightness (bronchoconstriction response)” value was “approximately 65%”. Also, the “pH of solution within 3 minutes” value in data set [3] is on record as more than 7.5. Moreover, in data set [4], the “cases with nephrotoxicity symptoms” value is “about 5%” and the “cases with neurotoxicity symptoms” value was “about 29%”. Besides, in data set [5] (setting [8]), the “average respirable fraction (particles from 1 micron to 6 microns)” value is given as 58.77±2.03 percentage and the “mass median particle diameter of the aerosol” value was 4.11±0.29 microns. Further, the aerosolization time in data set [5] (4 mL of 20 mg/ml solution, mean) turned out to be 10.53 min. Also, the “drug converted to colistin in an hour” value in data set [6] is listed as approximately 3%. Besides, in the data set on Pseudomonas aeruginosa [7] (8 μg/mL, 4 hours of testing), the “eradication of Pseudomonas aeruginosa organism” value was “did not, even at 4 hours of testing, eradicate”. For the same molecule, in the data set on Pseudomonas aeruginosa [7] (16 μg/mL, at 3 hours), the “killing of test organism” value is given as “over 5 logs”. In addition, the “time at which over 5 logs killing was shown” value in the data set with Pseudomonas aeruginosa [7] (64 μg/mL) is recorded as 1.5 hours. Also, the “concentration required for similar level of killing (over 5 logs within 2 hours)” value in the data set with Pseudomonas aeruginosa [7] (freshly dissolved) is recorded as 32 μg/ml.
